The test system of series [1] is rSsoPK4(284–635). The series is described as follows: Protein kinase activity assay (filter paper method, [γ-32P]ATP, 65 °C) of rSsoPK4(284–635). Format: biochemical, Sulfolobus solfataricus. The settings on record: for Inhibitor: effector at 100 µM, MBP as phosphoacceptor substrate; for perturbed the activity of rSsoPK4: compound at 100 µM; for Km / Vmax toward protein substrate: no CoAS-SCoA, label = protein substrate, estimated. On the procedure: (§1) Protein kinase activity was routinely assayed by the filter paper method of Corbin and Reimann as modified by Lower and Kennelly. The final volume of the assays was typically 50 μL. The quantity of rSsoPK4 assayed ranged from 0.1 to 5.0 µg. Both MgCl2 and MnCl2 were included at a final concentration of 5 mM each. The final concentration of [γ-^32P]ATP was 100 μM. The specific activity of the [γ-^32P]ATP generally ranged from 2 to 5 × 10^15 cpm/mol. Phosphoacceptor proteins were generally present at a concentration of 0.5–1.0 µg/µL. The assay mixture was typically incubated for a period of 30 min to one hour at 65 °C in 50 mM MOPS pH 7.0. On occasion, the proteins within the assay mixture were resolved by SDS-PAGE in order to identify the specific polypeptides that were phosphorylated. Radiolabeled species were visualized using an Instant Imager from Packard (Downers Grove, IL, USA).

Series [2] concerns the target T1, rSsoPK4(284–635) (Saccharolobus solfataricus, UniProt Q97U41).
T1 construct: gene SSO3182; residues 284–635 (catalytic and part of central helical repeat domain), N-terminal S-tag, C-terminal 33-residue fusion domain with polyhistidine motif, pET-29b, expressed in E. coli
T1 sequence (Q97U41 284-635): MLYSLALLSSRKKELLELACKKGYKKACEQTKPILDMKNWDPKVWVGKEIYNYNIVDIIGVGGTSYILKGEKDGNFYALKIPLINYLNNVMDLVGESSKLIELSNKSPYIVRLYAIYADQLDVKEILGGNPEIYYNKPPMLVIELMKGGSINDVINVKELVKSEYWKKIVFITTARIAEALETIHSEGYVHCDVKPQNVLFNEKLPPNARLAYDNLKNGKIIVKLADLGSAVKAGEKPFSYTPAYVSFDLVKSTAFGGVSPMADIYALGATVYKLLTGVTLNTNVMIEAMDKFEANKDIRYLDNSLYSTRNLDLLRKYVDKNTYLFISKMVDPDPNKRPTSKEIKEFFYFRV
The series is described as follows: Filter paper [γ-32P]ATP kinase assay with MBP as phosphoacceptor, ATP routinely 100 µM, 5 mM MgCl2 and 5 mM MnCl2, 50 mM MOPS pH 7.0, 65 °C, in the presence of nucleotide effectors. Format: biochemical. On the procedure: as §1

Series [3] concerns rSsoPK4(284–635) T592D/T606D/S611D. The series is described as follows: Protein kinase activity assay of rSsoPK4(284–635) T592D/T606D/S611D. Format: biochemical, Sulfolobus solfataricus. The settings on record: no CoAS-SCoA; label = protein substrate. On the procedure: Figure 9 CoAS-SCoA activates rSsoPK4(284–635), but not rSsoPK4(284–635) T592D/T606D/S611D, in a concentration-dependent manner. The activity of rSsoPK4(284–635) (OPEN […]) and rSsoPK4(284–635) T592D/T606D/S611D (OPEN CIRCLES) were assayed, in duplicate, in the presence of the indicated concentrations of CoAS-SCoA using MBP as substrate. Shown is a plot of the activity relative to that measured in the absence of CoAS-SCoA, which was normalized as 1.0, plus or minus mean average deviation.

The values that follow come from publication PMC5217372, “Activation of SsoPK4, an Archaeal eIF2α Kinase Homolog, by Oxidized CoA” (Proteomes, 2015).

Values joined by “and” are separate entries in the source; they are usually repeats but may differ in a detail not shown here. Equal values may be shown once.

Turning to `O=c1ccn([C@@H]2O[C@H](COP(=O)(O)O)[C@@H](O)[C@H]2O)c(=O)[nH]1` [5ʹ-UMP], the Inhibitor entry in series [1] is listed as “N (Where a change of ±20% or less in enzyme activity was observed, the compound was designated as non-inhibitory (N))”.

As for `Nc1ncnc2c1ncn2[C@@H]1O[C@H](COP(=O)(O)OS(=O)(=O)O)[C@@H](OP(=O)(O)O)[C@H]1O` [Phosphoadenosine phosphosulfate], in series [1], the Inhibitor entry is “N (Where a change of ±20% or less in enzyme activity was observed, the compound was designated as non-inhibitory (N))”.

Take `Nc1ncnc2c1ncn2[C@H]1C[C@H](O)[C@@H](COP(=O)(O)O)O1` [5ʹ-dAMP]: in series [1], the Inhibitor entry was “N (Where a change of ±20% or less in enzyme activity was observed, the compound was designated as non-inhibitory (N))”.

On to Oxidized glutathione, for which the “effect on protein kinase activity toward MBP” value in series [1] (MBP substrate, compounds at 1 mM (Figure 8)) is “no effect”.

For the molecule `CC(=O)SCCNC(=O)CCNC(=O)[C@H](O)C(C)(C)COP(=O)(O)OP(=O)(O)OC[C@H]1O[C@@H](n2cnc3c(N)ncnc32)[C@H](O)[C@@H]1OP(=O)(O)O` [Acetyl-CoA], the Inhibitor entry in series [1] was “N (Where a change of ±20% or less in enzyme activity was observed, the compound was designated as non-inhibitory (N))”.

Consider `Cc1cc2nc3c(=O)[nH]c(=O)nc-3n(C[C@H](O)[C@H](O)[C@H](O)COP(=O)(O)OP(=O)(O)OC[C@H]3O[C@@H](n4cnc5c(N)ncnc54)[C@H](O)[C@@H]3O)c2cc1C` [FAD^+], for which, in series [1], the Inhibitor result is “N (Where a change of ±20% or less in enzyme activity was observed, the compound was designated as non-inhibitory (N))”.

In the case of `Nc1nc2c(ncn2[C@@H]2O[C@H](COP(=O)(O)O)[C@@H](O)[C@H]2O)c(=O)[nH]1` [5ʹ-GMP], the Inhibitor result in series [1] is listed as “N (Where a change of ±20% or less in enzyme activity was observed, the compound was designated as non-inhibitory (N))”.

Regarding `NC(=O)c1ccc[n+]([C@@H]2O[C@H](COP(=O)([O-])OP(=O)(O)OC[C@H]3O[C@@H](n4cnc5c(N)ncnc54)[C@H](O)[C@@H]3O)[C@@H](O)[C@H]2O)c1` [NAD^+], in series [1], the Inhibitor entry was “N (Where a change of ±20% or less in enzyme activity was observed, the compound was designated as non-inhibitory (N))”.

Consider `CC(C)(COP(=O)(O)OP(=O)(O)OC[C@H]1O[C@@H](n2cnc3c(N)ncnc32)[C@H](O)[C@@H]1OP(=O)(O)O)[C@@H](O)C(=O)NCCC(=O)NCCS` [CoASH, reduced CoA], for which the Inhibitor result in series [1] is listed as “N (Where a change of ±20% or less in enzyme activity was observed, the compound was designated as non-inhibitory (N))”.

In the case of `C[S+](CC[C@H](N)C(=O)[O-])C[C@H]1O[C@@H](n2cnc3c(N)ncnc32)[C@H](O)[C@@H]1O` (stereo partly drawn) [S-Adenosyl-Methionine], in series [1], the Inhibitor result was “N (Where a change of ±20% or less in enzyme activity was observed, the compound was designated as non-inhibitory (N))”.

Consider `Nc1ccn([C@@H]2O[C@H](COP(=O)(O)O)[C@@H](O)[C@H]2O)c(=O)n1` [5ʹ-CMP], for which the Inhibitor entry in series [1] is “N (Where a change of ±20% or less in enzyme activity was observed, the compound was designated as non-inhibitory (N))”.

The term IC50 denotes the concentration needed to halve the response being measured. In the case of `Nc1ncnc2c1ncn2[C@@H]1O[C@H](CO)[C@H]2OP(=O)(O)O[C@H]21` [2ʹ,3ʹ-cAMP, 2ʹ,3ʹ-cyclic AMP], the IC50 in series [2] amounted to 1.55 mM.

For the molecule `Nc1ncnc2c1ncn2[C@@H]1O[C@H](CSCC[C@H](N)C(=O)O)[C@@H](O)[C@H]1O` [S-Adenosyl-homocysteine], in series [1], the Inhibitor entry is listed as “N (Where a change of ±20% or less in enzyme activity was observed, the compound was designated as non-inhibitory (N))”.

On to `Nc1ncnc2c1ncn2[C@@H]1O[C@H](COP(=O)(O)OP(=O)(O)O)[C@@H](O)[C@H]1O` [ADP], for which, in series [1], the “perturbed the activity of rSsoPK4” value is on record as “perturbed the activity” and the Inhibitor result was “Y (designated as inhibitors (Y) if they were observed to stimulate or reduce, respectively, catalytic activity by greater than 20% relative to controls lacking added effectors)”.

As for `NC(=O)C1=CN([C@@H]2O[C@H](COP(=O)(O)OP(=O)(O)OC[C@H]3O[C@@H](n4cnc5c(N)ncnc54)[C@H](OP(=O)(O)O)[C@@H]3O)[C@@H](O)[C@H]2O)C=CC1` [NADPH], the Inhibitor result in series [1] was “N (Where a change of ±20% or less in enzyme activity was observed, the compound was designated as non-inhibitory (N))”.

Turning to `Nc1ncnc2c1ncn2[C@@H]1O[C@H](CO)[C@@H](OP(=O)(O)O)[C@H]1O` [3ʹ-AMP], in series [1], the “perturbed the activity of rSsoPK4” value was “perturbed the activity” and the Inhibitor result was “Y (designated as inhibitors (Y) if they were observed to stimulate or reduce, respectively, catalytic activity by greater than 20% relative to controls lacking added effectors)”.

Regarding `Nc1ncnc2c1ncn2[C@@H]1O[C@H](CO)[C@H]2OP(=O)(O)O[C@H]21` [2ʹ,3ʹ-cAMP], in series [1], the “perturbed the activity of rSsoPK4” value is reported as “perturbed the activity” and the Inhibitor result is listed as “Y (designated as inhibitors (Y) if they were observed to stimulate or reduce, respectively, catalytic activity by greater than 20% relative to controls lacking added effectors)”.

Turning to `Nc1ncnc2c1ncn2[C@@H]1O[C@H](COP(=O)(O)OS(=O)(=O)O)[C@@H](O)[C@H]1O` [Adenosine phosphosulfate], in series [1], the “perturbed the activity of rSsoPK4” value is listed as “perturbed the activity” and the Inhibitor entry is listed as “Y (designated as inhibitors (Y) if they were observed to stimulate or reduce, respectively, catalytic activity by greater than 20% relative to controls lacking added effectors)”.

For the molecule `NC(=O)c1ccc[n+]([C@@H]2O[C@H](COP(=O)([O-])OP(=O)(O)OC[C@H]3O[C@@H](n4cnc5c(N)ncnc54)[C@H](OP(=O)(O)O)[C@@H]3O)[C@@H](O)[C@H]2O)c1` [NADP^+], in series [1], the Inhibitor entry is “N (Where a change of ±20% or less in enzyme activity was observed, the compound was designated as non-inhibitory (N))”.

Regarding `NC(=O)C1=CN([C@@H]2O[C@H](COP(=O)(O)OP(=O)(O)OC[C@H]3O[C@@H](n4cnc5c(N)ncnc54)[C@H](O)[C@@H]3O)[C@@H](O)[C@H]2O)C=CC1` [NADH], the Inhibitor entry in series [1] is given as “N (Where a change of ±20% or less in enzyme activity was observed, the compound was designated as non-inhibitory (N))”.

For the molecule `Cc1ncc(C[n+]2csc(CCOP(=O)(O)OP(=O)(O)O)c2C)c(N)n1` [Thiamine-PPi], in series [1], the Inhibitor entry is listed as “N (Where a change of ±20% or less in enzyme activity was observed, the compound was designated as non-inhibitory (N))”.

As to `Nc1ncnc2c1ncn2[C@@H]1O[C@H](COP(=O)(O)O)[C@@H](O)[C@H]1O` [5'AMP, 5ʹ-AMP], in series [1], the “perturbed the activity of rSsoPK4” value is listed as “perturbed the activity” and the Inhibitor result was “Y (designated as inhibitors (Y) if they were observed to stimulate or reduce, respectively, catalytic activity by greater than 20% relative to controls lacking added effectors)”.

For the molecule `Nc1nc2c(ncn2[C@@H]2O[C@H](COP(=O)(O)OP(=O)(O)OP(=O)(O)O)[C@@H](O)[C@H]2O)c(=O)[nH]1` [GTP], the Inhibitor result in series [1] is reported as “N (Where a change of ±20% or less in enzyme activity was observed, the compound was designated as non-inhibitory (N))”.

B1: MBP: myelin basic protein, exogenous phosphoacceptor substrate (protein, UniProt P02687 1-169, looked up)
Myelin basic protein: AAQKRPSQRSKYLASASTMDHARHGFLPRHRDTGILDSLGRFFGSDRGAPKRGSGKDGHHAARTTHYGSLPQKAQGHRPQDENPVVHFFKNIVTPRTPPPSQGKGRGLSLSRFSWGAEGQKPGFGYGGRASDYKSAHKGLKGHDAQGTLSKIFKLGGRDSRSGSPMARR
For orientation: Km means the concentration of substrate that gives half-maximal velocity. Consider B1, for which, in series [3], the Km is 17 µM and the “Vmax toward protein substrate” value amounted to 4.2 nmol/min/mg. Further, in series [1], the Km is 145 µM and the “Vmax toward protein substrate” value was 3.7 nmol/min/mg.

B2: aIF2α: recombinant protein product of ORF sso1050, archaeal homologue of eIF2α from S. solfataricus (protein, UniProt Q97Z79 1-266, looked up)
Translation initiation factor …: MIYSRSKLPSEGEILIATVKQVFDYGSYVSLDEYGGLQAFLPWSEVSSKWVKNIRDVLKENRKVIVKVIRVDRRKGTVDVSLKKVTDDERRKKNLQWKKIQRLDKILELVSQKLKLSEKDAWEQVAWKLEAKYGDPITAIEKAVKEGEKILIDAGVPEIWVKPLLEEASKHAEERKVKMSGLITVRTNEPLGVEKIKEVISKALENIEQDYESLLNIKIYTIGAPRYRVDVVGTNPKEASEALNQIISNLIKIGKEENVDISVVKK
Consider B2, for which the Km in series [3] is 4 µM; in series [1], ~48 µM and 48 µM. The “Vmax toward protein substrate” value in series [3] was 1.9 nmol/min/mg; in series [1], 4.2 nmol/min/mg.
